According to ChEMBL document CHEMBL6177977, “Discovery of a Potent, Selective, and Brain-Penetrant Checkpoint Kinase 1 Inhibitor, BEN-28010, for the Treatment of Glioblastoma” (J Med Chem, 2025):
Converted amounts (≈) assume the structure as drawn.

Assays:
[1] = biological target: T1, Serine/threonine-protein kinase Chk1 (Homo sapiens, UniProt O14757); experiment: Inhibition of N-terminal GST-fused human full length CHK1 (1 to 476 residues) expressed in baculovirus-infected Sf21 cells using STK1 S1 as substrate preincubated for 30 mins in presence of ATP followed by MgCl2 addition and measured after 60 mins by TR-FRET assay
T1 sequence (O14757 whole entry): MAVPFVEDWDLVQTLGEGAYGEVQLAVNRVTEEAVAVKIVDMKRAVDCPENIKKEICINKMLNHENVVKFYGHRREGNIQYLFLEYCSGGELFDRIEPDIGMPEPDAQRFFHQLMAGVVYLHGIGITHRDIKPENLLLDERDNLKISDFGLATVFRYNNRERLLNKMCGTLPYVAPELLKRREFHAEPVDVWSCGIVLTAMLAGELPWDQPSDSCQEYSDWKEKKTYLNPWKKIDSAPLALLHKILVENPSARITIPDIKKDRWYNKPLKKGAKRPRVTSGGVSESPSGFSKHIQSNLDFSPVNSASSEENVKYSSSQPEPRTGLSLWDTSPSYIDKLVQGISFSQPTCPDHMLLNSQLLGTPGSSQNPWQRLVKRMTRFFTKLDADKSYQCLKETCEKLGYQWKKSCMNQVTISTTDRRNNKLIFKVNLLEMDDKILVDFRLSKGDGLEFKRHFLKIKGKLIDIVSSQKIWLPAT

[2] = biological target: Serine/threonine-protein kinase Chk2 (Homo sapiens, UniProt O96017); experiment: biochemical
Sequence of Serine/threonine-protein kinase Chk2 (O96017 whole entry): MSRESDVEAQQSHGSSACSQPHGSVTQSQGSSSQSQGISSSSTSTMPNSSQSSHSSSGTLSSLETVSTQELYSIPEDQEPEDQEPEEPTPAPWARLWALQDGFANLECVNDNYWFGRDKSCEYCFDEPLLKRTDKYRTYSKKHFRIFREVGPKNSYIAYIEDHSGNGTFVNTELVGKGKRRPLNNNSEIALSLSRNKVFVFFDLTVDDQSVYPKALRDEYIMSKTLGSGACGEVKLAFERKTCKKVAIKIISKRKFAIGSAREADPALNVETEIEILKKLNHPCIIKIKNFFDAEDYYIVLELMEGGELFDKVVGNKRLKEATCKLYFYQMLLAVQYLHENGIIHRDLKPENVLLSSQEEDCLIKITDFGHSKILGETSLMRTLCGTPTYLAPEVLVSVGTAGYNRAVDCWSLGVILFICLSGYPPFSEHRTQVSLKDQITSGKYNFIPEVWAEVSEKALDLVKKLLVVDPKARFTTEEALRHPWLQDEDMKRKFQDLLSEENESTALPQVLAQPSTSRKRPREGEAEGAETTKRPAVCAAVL
Description: Inhibition of N-terminal GST-fused human full length CHK2 (1 to 543 residues) expressed in baculovirus-infected Sf21 cells using STK1 S1 as substrate preincubated for 30 mins in presence of ATP followed by MgCl2 addition and measured after 60 mins by TR-FRET assay

BCRP = experiment: in vitro; conditions: dog
Description: Efflux ratio of apparent permeability across basal to apical side over apical to basal side in dog MDCK-BCRP cells at 1 uM measured after 1 day by LC-MS/MS analysis

MDR1 = experiment: in vitro; conditions: dog, MDCK-MDR1
Description: Efflux ratio of apparent permeability across basal to apical side over apical to basal side in dog MDCK-MDR1 cells at 1 uM measured after 1 day by LC-MS/MS analysis

[3] = biological target: T1, Serine/threonine-protein kinase Chk1; experiment: Inhibition of human full length recombinant CHK1 using KKKVSRSGLYRSPSMPENLNRPR as substrate in presence of [gamma-33P]ATP incubated for 40 mins by radiometric assay
[4] = Intrinsic clearance in human liver microsomes measured per mg protein; type: ADME, Microsome; conditions: read-out: CLH
[5] = Intrinsic clearance in rat liver microsomes measured per mg protein; type: ADME, Microsome; conditions: read-out: CLH
[6] = biological target: Voltage-gated inwardly rectifying potassium channel KCNH2 (Homo sapiens, UniProt Q12809); experiment: Inhibition of hERG expressed in HEK cells by electrophysiology; type: toxicity, cell-based
Sequence of Voltage-gated inwardly rectifying potassium channel KCNH2 (Q12809 whole entry): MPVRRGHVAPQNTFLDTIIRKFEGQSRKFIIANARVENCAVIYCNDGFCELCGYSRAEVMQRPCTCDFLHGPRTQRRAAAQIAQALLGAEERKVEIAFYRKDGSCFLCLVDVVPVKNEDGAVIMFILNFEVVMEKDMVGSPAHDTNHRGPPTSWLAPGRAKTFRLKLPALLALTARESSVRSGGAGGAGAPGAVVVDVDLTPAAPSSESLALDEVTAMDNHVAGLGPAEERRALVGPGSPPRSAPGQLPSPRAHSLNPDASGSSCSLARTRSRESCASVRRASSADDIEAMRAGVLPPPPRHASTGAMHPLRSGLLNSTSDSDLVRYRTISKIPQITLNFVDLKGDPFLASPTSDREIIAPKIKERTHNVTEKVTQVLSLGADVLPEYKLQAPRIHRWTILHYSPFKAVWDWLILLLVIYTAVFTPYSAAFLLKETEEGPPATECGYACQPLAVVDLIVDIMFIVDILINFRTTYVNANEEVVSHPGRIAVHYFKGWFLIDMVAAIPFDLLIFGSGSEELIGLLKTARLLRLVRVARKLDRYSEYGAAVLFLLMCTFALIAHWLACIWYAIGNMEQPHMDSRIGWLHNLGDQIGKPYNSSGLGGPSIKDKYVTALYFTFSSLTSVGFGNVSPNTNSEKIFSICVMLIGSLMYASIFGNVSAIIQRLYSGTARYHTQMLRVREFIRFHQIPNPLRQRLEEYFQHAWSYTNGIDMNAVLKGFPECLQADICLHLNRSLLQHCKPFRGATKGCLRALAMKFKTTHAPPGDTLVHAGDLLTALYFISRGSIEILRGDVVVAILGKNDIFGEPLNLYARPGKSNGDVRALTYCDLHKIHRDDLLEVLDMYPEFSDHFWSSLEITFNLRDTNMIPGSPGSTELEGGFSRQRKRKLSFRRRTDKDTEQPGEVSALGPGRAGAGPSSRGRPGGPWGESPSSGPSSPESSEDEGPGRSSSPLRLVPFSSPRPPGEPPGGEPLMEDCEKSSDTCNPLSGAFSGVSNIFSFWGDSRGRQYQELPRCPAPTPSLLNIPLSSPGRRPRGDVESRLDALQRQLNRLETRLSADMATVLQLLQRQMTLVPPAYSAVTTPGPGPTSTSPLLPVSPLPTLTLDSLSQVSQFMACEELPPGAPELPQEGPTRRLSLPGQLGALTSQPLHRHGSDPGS

in vivo = conditions: Sprague-Dawley, rat, brain and plasma, iv, 1 mg/kg
Description: Unbound brain-to-plasma concentration ratio in Sprague-Dawley rat at 1 mg/kg, iv measured after 15 mins by rapid equilibrium dialysis method

[7] = Kinetic aqueous solubility of the compound at 250 uM measured after 2 hrs by RP-UPLC-DAD analysis; type: physicochemical; conditions: buffer, read-out: Kinetic_solubility
in vitro = conditions: dog, MDCK
Description: Apparent permeability of the compound across apical to basolateral side in dog MDCK cells at 1 uM measured after 1 day by LC-MS/MS analysis

GBM [8] = experiment: Antitumor activity against human patient-derived GBM cells implanted in orthotopic NOG mouse model assessed as lifespan of animal's survival at 20 mg/kg, ip qd with dosing schedule of 5 days on and 2 days off for 28 days (reference value: 25.5 days); type: functional; conditions: time 28 day
[9] = Plasma concentration required to achieve 50% in vivo inhibition of CHK1 assessed as accumulation of CHK1 phosphorylation at Ser345 residue in tumors in po dosed GBM LN-229 CDX NOD/SCID mouse model; type: organism-based; conditions: LN-229, Plasma
[10] = biological target: Voltage-dependent L-type calcium channel subunit alpha-1C (Homo sapiens, UniProt Q13936); experiment: Inhibition of human Cav1.2 transfected in CHO cells by automated electrophysiological analysis; type: cell-based
GBM [11] = experiment: Antitumor activity against human patient-derived GBM cells implanted in orthotopic NOG mouse model assessed as lifespan of animal's survival at 100 mg/kg, po qd with dosing schedule of 2 days on and 11 days off for 28 days (reference value: 25.5 days); type: functional; conditions: time 28 day
[12] = biological target: Sodium channel protein type 5 subunit alpha (Homo sapiens, UniProt Q14524); experiment: Inhibition of human Nav1.5 transfected in CHO cells by automated electrophysiological analysis; type: cell-based
Sequence of Sodium channel protein type 5 subunit alpha (Q14524 whole entry): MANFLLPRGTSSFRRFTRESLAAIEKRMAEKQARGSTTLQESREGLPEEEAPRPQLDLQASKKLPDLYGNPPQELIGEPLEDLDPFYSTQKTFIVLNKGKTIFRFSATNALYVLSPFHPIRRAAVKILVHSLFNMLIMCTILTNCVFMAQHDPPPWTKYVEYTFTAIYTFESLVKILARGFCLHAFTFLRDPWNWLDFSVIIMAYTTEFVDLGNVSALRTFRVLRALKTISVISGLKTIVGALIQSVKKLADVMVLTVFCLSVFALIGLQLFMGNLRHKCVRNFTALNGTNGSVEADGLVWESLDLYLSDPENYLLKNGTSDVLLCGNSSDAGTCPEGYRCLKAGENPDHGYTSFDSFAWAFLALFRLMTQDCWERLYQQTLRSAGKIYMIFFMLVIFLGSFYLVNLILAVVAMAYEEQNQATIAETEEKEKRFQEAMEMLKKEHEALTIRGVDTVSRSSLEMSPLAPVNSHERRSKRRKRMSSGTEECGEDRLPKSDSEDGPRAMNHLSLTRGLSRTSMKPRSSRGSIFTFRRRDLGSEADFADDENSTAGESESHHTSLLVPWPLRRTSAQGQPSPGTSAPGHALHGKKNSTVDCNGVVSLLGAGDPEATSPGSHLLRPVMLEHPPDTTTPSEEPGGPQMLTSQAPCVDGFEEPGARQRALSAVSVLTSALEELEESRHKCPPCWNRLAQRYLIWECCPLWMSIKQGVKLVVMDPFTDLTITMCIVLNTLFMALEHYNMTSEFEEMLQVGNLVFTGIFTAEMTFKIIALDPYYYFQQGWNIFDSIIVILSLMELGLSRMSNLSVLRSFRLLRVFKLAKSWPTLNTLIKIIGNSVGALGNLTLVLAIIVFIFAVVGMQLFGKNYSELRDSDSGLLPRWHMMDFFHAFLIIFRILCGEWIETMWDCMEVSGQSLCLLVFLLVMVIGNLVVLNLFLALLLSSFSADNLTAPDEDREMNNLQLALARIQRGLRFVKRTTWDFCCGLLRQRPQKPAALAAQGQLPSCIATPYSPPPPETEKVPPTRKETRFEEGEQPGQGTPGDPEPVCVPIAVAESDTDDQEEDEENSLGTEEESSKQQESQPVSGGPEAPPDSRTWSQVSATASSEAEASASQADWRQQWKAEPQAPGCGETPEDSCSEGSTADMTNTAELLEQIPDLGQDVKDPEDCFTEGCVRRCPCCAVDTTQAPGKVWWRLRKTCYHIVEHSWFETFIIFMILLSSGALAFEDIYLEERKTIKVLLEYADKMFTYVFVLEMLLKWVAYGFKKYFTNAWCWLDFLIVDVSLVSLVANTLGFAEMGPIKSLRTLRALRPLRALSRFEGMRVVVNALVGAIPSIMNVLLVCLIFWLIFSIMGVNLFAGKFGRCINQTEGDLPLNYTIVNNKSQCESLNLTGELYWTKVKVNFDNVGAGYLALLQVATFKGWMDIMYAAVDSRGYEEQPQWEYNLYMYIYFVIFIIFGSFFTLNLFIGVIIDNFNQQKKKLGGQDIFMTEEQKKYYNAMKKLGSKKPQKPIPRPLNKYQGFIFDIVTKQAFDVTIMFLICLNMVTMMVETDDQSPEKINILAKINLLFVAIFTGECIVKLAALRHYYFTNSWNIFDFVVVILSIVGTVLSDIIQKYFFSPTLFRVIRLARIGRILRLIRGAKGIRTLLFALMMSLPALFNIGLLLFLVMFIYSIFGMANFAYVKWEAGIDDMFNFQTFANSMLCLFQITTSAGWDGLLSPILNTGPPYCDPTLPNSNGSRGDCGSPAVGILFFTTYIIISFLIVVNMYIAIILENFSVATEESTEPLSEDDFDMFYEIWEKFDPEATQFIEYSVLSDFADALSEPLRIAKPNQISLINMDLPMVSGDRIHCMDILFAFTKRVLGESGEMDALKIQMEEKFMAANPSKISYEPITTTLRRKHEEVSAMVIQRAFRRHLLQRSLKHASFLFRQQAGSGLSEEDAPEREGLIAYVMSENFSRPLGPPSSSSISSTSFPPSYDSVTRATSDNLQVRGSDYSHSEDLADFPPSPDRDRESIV

GBM [13] = experiment: Antitumor activity against human patient-derived GBM cells implanted in orthotopic NOG mouse model assessed as lifespan of animal's survival at 30 mg/kg, po qd for 28 days (reference value: 25.5 days); type: functional; conditions: time 28 day
[14] = biological target: T1, Serine/threonine-protein kinase Chk1; experiment: Inhibition of CHK1 in neocarzinostatin-stimulated human SW620 cells assessed as inhibition of CHK1 phosphorylation at Ser296 residue incubated for 2 hrs by sandwich ELISA; type: cell-based
GBM [15] = experiment: Antitumor activity against human patient-derived GBM cells implanted in orthotopic NOG mouse model assessed as lifespan of animal's survival at 50 mg/kg, po qd with dosing schedule of 3 days on and 4 days off for 28 days (reference value: 25.5 days); type: functional; conditions: time 28 day
[16] = Apparent permeability of the compound in dog MDCK-MDR1 cells at 1 uM measured after 1 day by LC-MS/MS analysis; type: ADME, cell-based, Canis lupus familiaris

Structure (SMILES) | IC50 [1] | IC50 [2] | efflux ratio at 24 h, 1 µM (BCRP) | efflux ratio at 24 h, 1 µM (MDR1) | other results
CN(C)[C@H]1CCN(c2ccc(-n3cnc(Nc4cnc(C#N)cn4)c3)cc2)C1 | 0.068 µM |  |  |  | 
N#Cc1cnc(Nc2cn(-c3ccccc3)cn2)cn1 |  |  | 1 | 0.6 | IC50 [3]: 0.549 µM
CN1CC2(C1)CN(c1ccc(-n3cnc(Nc4cnc(C#N)cn4)c3)cc1)C2 | 0.031 µM |  |  |  | 
CCN1CCN(c2ccc(-n3cnc(Nc4cnc(C#N)cn4)c3)cc2)CC1 | 0.021 µM |  |  |  | 
Cn1nnc2c(C(N)=O)ncn2c1=O [TEMOZOLOMIDE] |  |  |  |  | Survival (GBM [8]): 43 days
N#Cc1cnc(Nc2cn(-c3ccc(N4CCN(CCF)CC4)cc3)cn2)cn1 | 0.04 µM | > 10 µM | 1.4 | < 1 | 
CN(C)[C@@H]1CCN(c2ccc(-n3cnc(Nc4cnc(C#N)cn4)c3)cc2)C1 | 0.004 µM |  |  |  | IC50 [9]: 0.209 µM; IC50 [10]: > 30 µM; Survival (GBM [11]): 50 days; IC50 [12]: > 30 µM; Survival (GBM [13]): 34 days; IC50 [14]: 0.45 µM; Survival (GBM [15]): 39.5 days
N#Cc1cnc(Nc2cn(C(F)F)cn2)cn1 |  |  |  | 0.9 | Papp at 24 h, 1 µM [16]: 66 ×10⁻⁶ cm/s; IC50 [3]: 3 µM
Cc1cc(N2CCN(C)CC2)ccc1-n1cnc(Nc2cnc(C#N)cn2)c1 | 0.464 µM |  |  |  | 
CN1CC[C@@H]2CN(c3ccc(-n4cnc(Nc5cnc(C#N)cn5)c4)cc3)C[C@@H]21 | 0.017 µM | > 10 µM | 2.7 | 2.5 | 

More lines, main results first:

IC50 [1] | IC50 [2] | efflux ratio at 24 h, 1 µM (BCRP) | efflux ratio at 24 h, 1 µM (MDR1) | Structure (SMILES) | other results
0.012 µM | > 10 µM |  |  | CN1CC2(CCN(c3ccc(-n4cnc(Nc5cnc(C#N)cn5)c4)cc3)C2)C1 | 
0.005 µM | 1.31 µM |  |  | CN(C)[C@H]1CN(c2ccc(-n3cnc(Nc4cnc(C#N)cn4)c3)cc2)C[C@@H]1F | 
0.015 µM | > 10 µM | 3.7 | 1.7 | CN1CCN(c2ccc(-n3cnc(Nc4cnc(C#N)cn4)c3)cc2)CC1 | microsomal CLint [4]: < 14 µL/min/mg; microsomal CLint [5]: 47 µL/min/mg; IC50 [6]: > 30 µM; Kp uu at […] (in vivo): 0.4; solubility kinetic at 2 h, 250 µM [7]: 59 µM (≈ 21.3 µg/mL); Papp A→B at 24 h, 1 µM (in vitro): 58 ×10⁻⁶ cm/s
0.014 µM | 3.19 µM |  |  | CN(C)[C@H]1CN(c2ccc(-n3cnc(Nc4cnc(C#N)cn4)c3)cc2)C[C@H]1F | 
0.002 µM | 1.1 µM | 1.5 | 3.6 | CN(C)[C@]1(C)CCN(c2ccc(-n3cnc(Nc4cnc(C#N)cn4)c3)cc2)C1 | 
0.016 µM | > 10 µM |  |  | C[C@@H]1CN(c2ccc(-n3cnc(Nc4cnc(C#N)cn4)c3)cc2)C[C@@H]1N(C)C | 
0.011 µM | 8.76 µM | 23 | 26 | CN(C)C1CCN(c2ccc(-n3cnc(Nc4cnc(C#N)cn4)c3)cc2)CC1 | 
0.014 µM |  | > 50 | 34 | CN1CC2(CCN(c3nc(Nc4cn(C(F)F)cn4)cnc3C#N)C2)C1 | 
0.002 µM |  | > 50 | > 50 | CN1CC2(CCN(c3nc(Nc4cn(-c5ccccn5)cn4)cnc3C#N)C2)C1 | 
0.004 µM | 2.72 µM |  |  | C[C@H]1CN(c2ccc(-n3cnc(Nc4cnc(C#N)cn4)c3)cc2)C[C@@H]1N(C)C | 
0.009 µM | > 10 µM |  |  | CN(C)C1CN(c2ccc(-n3cnc(Nc4cnc(C#N)cn4)c3)cc2)C1 | 
0.004 µM | 2.07 µM |  |  | CCN(C)[C@@H]1CCN(c2ccc(-n3cnc(Nc4cnc(C#N)cn4)c3)cc2)C1 | 
